Measured values: patent publication US20110105493A1, “HETEROCYCLYL SUBSTITUTED ARYLINDENOPYRIMIDINES AND THEIR USE AS HIGHLY SELECTIVE ADENOSINE A2a RECEPTOR ANTAGONISTS” (priority 2009, published 2011)

Legend:
[1] = target: T1, human adenosine A2A receptor (Homo sapiens, UniProt P29274); assay: Adenosine A2A Receptor Functional Assay (A2A GAL2); assay type: cell-based; details: for IC50: CHO-K1 cells overexpressing human A2A receptor, cAMP inducible beta-galactosidase reporter, 15 nM NECA agonist challenge, read-out: A2AGal2; for A1/A2A: ratio of A1Gal2 to A2AGal2 values
T1 construct: expressed in transfected cells; host or cells: CHO-K1 cells with a cAMP inducible beta-galactosidase reporter gene
Protocol: Adenosine A2A Receptor Functional Assay (A2A GAL2)
To initiate the functional assay, cryopreserved CHO—K1 cells overexpressing the human adenosine A2A receptor and containing a cAMP inducible beta-galactosidase reporter gene were thawed, centrifuged, DMSO containing media removed, and then seeded with fresh culture media into clear 384-well tissue culture treated plates (BD #353961) at a concentration of 10K cells/well. Prior to assay, these plates were cultured for two days at 37° C., 5% CO2, 90% Rh. On the day of the functional assay, culture media was removed and replaced with 45 μL assay medium (Hams/F-12 Modified (Mediatech # 10-080CV) supplemented w/0.1% BSA). Test compounds were diluted and 11 point curves created at a 1000× concentration in 100% DMSO. Immediately after addition of assay media to the cell plates, 50 nL of the appropriate test compound antagonist or agonist control curves were added to cell plates using a Cartesian Hummingbird. Compound curves were allowed to incubate at room temperature on cell plates for approximately 15 minutes before addition of a 15 nM NECA (Sigma E2387) agonist challenge (5 μL volume). A control curve of NECA, a DMSO/Media control, and a single dose of Forskolin (Sigma F3917) were also included on each plate. After additions, cell plates were allowed to incubate at 37° C., 5% CO2, 90% Rh for 5.5-6 hours. After incubation, media were removed, and cell plates were washed 1×50 μL with DPBS w/o Ca & Mg (Mediatech 21-031-CV). Into dry wells, 20 μL of 1×Reporter Lysis Buffer (Promega E3971 (diluted in dH2O from 5× stock)) was added to each well and plates frozen at −20° C. overnight. For β-galactosidase enzyme colorimetric assay, plates were thawed out at room temperature and 20 μL 2× assay buffer (Promega) was added to each well. Color was allowed to develop at 37° C., 5% CO2, 90% Rh for 1-1.5 h or until reasonable signal appeared. The colorimetric reaction was stopped with the addition of 60 μL/well 1M sodium carbonate. Plates were counted at 405 nm on a SpectraMax Microplate Reader (Molecular Devices). Data was analyzed in Microsoft Excel and IC/EC50 curves were fit using a standardized macro.

[2] = target: T2, human adenosine A1 receptor (Homo sapiens, UniProt P30542); assay: Adenosine A1 Receptor Functional Assay (A1GAL2); assay type: cell-based; details: CHO-K1 cells overexpressing human A1 receptor, cAMP inducible beta-galactosidase reporter, 4 nM r-PIA/1 uM Forskolin agonist challenge
T2 construct: expressed in transfected cells; host or cells: CHO-K1 cells with a cAMP inducible beta-galactosidase reporter gene
T2 sequence (P30542 1-326): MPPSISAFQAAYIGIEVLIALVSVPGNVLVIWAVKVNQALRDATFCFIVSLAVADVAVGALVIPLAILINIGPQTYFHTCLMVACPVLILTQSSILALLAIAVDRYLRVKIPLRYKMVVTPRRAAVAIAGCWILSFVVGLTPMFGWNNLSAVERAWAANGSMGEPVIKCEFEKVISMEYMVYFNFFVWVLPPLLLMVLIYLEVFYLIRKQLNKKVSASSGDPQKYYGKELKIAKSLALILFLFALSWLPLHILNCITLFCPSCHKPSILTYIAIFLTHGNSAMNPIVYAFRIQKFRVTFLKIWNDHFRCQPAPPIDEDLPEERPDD
Protocol: Adenosine A1 Receptor Functional Assay (A1GAL2)
To initiate the functional assay, cryopreserved CHO—K1 cells overexpressing the human adenosine A1 receptor and containing a cAMP inducible beta-galactosidase reporter gene were thawed, centrifuged, DMSO containing media removed, and then seeded with fresh culture media into clear 384-well tissue culture treated plates (BD #353961) at a concentration of 10K cells/well. Prior to assay, these plates were cultured for two days at 37° C., 5% CO2, 90% Rh. On the day of the functional assay, culture media was removed and replaced with 45 μL assay medium (Hams/F-12 Modified (Mediatech # 10-080CV) supplemented w/0.1% BSA). Test compounds were diluted and 11 point curves created at a 1000× concentration in 100% DMSO. Immediately after addition of assay media to the cell plates, 50 nL of the appropriate test compound antagonist or agonist control curves were added to cell plates using a Cartesian Hummingbird. Compound curves were allowed to incubate at room temperature on cell plates for approximately 15 minutes before addition of a 4 nM r-PIA (Sigma P4532)/1 uM Forskolin (Sigma F3917) agonist challenge (5 μL volume). A control curve of r-PIA in1 uM Forskolin, a DMSO/Media control, and a single dose of Forskolin were also included on each plate. After additions, cell plates were allowed to incubate at 37° C., 5% CO2, 90% Rh for 5.5-6 hours. After incubation, media was removed, and cell plates were washed 1×50 μL with DPBS w/o Ca & Mg (Mediatech 21-031-CV). Into dry wells, 20 μL of 1×Reporter Lysis Buffer (Promega E3971 (diluted in dH2O from 5× stock)) was added to each well and plates frozen at −20° C. overnight. For β-galactosidase enzyme colorimetric assay, plates were thawed out at room temperature and 20 μL 2×assay buffer (Promega) was added to each well. Color was allowed to develop at 37° C., 5% CO2, 90% Rh for 1-1.5 h or until reasonable signal appeared. The colorimetric reaction was stopped with the addition of 60 μL/well 1M sodium carbonate. Plates were counted at 405 nm on a SpectraMax Microplate Reader (Molecular Devices). Data was analyzed in Microsoft Excel and IC/EC50 curves were fit using a standardized macro.

T1 sequence (P29274 whole entry): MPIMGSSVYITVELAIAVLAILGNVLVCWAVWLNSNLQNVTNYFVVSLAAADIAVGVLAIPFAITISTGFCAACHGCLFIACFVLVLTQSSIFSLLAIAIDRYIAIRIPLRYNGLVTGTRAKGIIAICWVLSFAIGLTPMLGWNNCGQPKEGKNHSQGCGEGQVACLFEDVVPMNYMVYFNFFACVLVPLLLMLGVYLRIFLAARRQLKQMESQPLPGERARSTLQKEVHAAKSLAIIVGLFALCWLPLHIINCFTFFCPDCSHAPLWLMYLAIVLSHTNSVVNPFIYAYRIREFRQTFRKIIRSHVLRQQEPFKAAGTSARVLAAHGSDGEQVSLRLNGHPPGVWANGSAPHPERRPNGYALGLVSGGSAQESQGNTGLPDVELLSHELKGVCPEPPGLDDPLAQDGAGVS

IC50 [1] [nM]	A1/A2A [1]	IC50 [2] [nM]	SMILES
2.7	1074.07	2900	N#Cc1ccccc1N1CCN(c2cccc3c2-c2nc(N)nc(-c4ccccc4)c2C3=O)CC1 [Example 7, 2-[4-(2-Amino-5-oxo-4-phenyl-5H-indeno[1,2-d]pyrimidin-9-yl)-piperazin-1-yl]-benzonitrile]
1.5	80	120	Nc1nc(-c2ccccc2)c2c(n1)-c1c(cccc1N1CCN(c3ccc(Cl)cc3)CC1)C2=O [Example 21, 2-Amino-9-[4-(4-chloro-phenyl)-piperazin-1-yl]-4-phenyl-indeno[1,2-d]pyrimidin-5-one]
1.6	5937.5	9500	Nc1nc(-c2ccccc2)c2c(n1)-c1c(cccc1N1CCN(c3ccc(F)cn3)CC1)C2=O [Example 2, 2-Amino-9-[4-(5-fluoro-pyridin-2-yl)-piperazin-1-yl]-4-phenyl-indeno[1,2-d]pyrimidin-5-one]
4.7	57.4468	270	Nc1nc(-c2ccccc2)c2c(n1)-c1c(cccc1N1CCC(N3CCOCC3)CC1)C2=O [Example 24, 2-Amino-9-(4-morpholin-4-yl-piperidin-1-yl)-4-phenyl-indeno[1,2-d]pyrimidin-5-one]
12.5	60.0758	748	C=CCN1CCN(c2cccc3c2-c2nc(N)nc(-c4ccccc4)c2C3=O)CC1 [Example 23, 9-(4-Allyl-piperazin-1-yl)-2-amino-4-phenyl-indeno[1,2-d]pyrimidin-5-one]
2.6	730.769	1900	Nc1nc(-c2ccccc2)c2c(n1)-c1c(cccc1N1CCN(c3ncccc3F)CC1)C2=O [Example 10, 2-Amino-9-[4-(3-fluoro-pyridin-2-yl)-piperazin-1-yl]-4-phenyl-indeno[1,2-d]pyrimidin-5-one]
0.44	227.273	100	CS(=O)(=O)c1ccc(N2CCN(c3cccc4c3-c3nc(N)nc(-c5ccccc5)c3C4=O)CC2)cc1 [Example 15, 2-Amino-9-[4-(4-methanesulfonyl-phenyl)-piperazin-1-yl]-4-phenyl-indeno[1,2-d]pyrimidin-5-one]
0.6	51.6667	31	Nc1nc(-c2ccccc2)c2c(n1)-c1c(cccc1N1CCN(c3cccnc3)CC1)C2=O [Example 26, 2-Amino-4-phenyl-9-(4-pyridin-3-yl-piperazin-1-yl)-indeno[1,2-d]pyrimidin-5-one]
1.2	1583.33	1900	Nc1nc(-c2ccccc2)c2c(n1)-c1c(cccc1N1CCN(c3ccccc3F)CC1)C2=O [Example 4, 2-Amino-9-[4-(2-fluoro-phenyl)-piperazin-1-yl]-4-phenyl-indeno[1,2-d]pyrimidin-5-one]
4.2	52.381	220	CC(=O)C1(c2ccccc2)CCN(c2cccc3c2-c2nc(N)nc(-c4ccccc4)c2C3=O)CC1 [Example 25, 9-(4-Acetyl-4-phenyl-piperidin-1-yl)-2-amino-4-phenyl-indeno[1,2-d]pyrimidin-5-one]
8.1	765.432	6200	Nc1nc(-c2ccccc2)c2c(n1)-c1c(cccc1N1CCN(c3ccc(C(F)(F)F)cc3)CC1)C2=O [Example 9, 2-Amino-4-phenyl-9-[4-(4-trifluoromethyl-phenyl)-piperazin-1-yl]-indeno[1,2-d]pyrimidin-5-one]
0.2	20250	4050	CC(=O)c1ccc(N2CCN(c3cccc4c3-c3nc(N)nc(-c5ccccc5)c3C4=O)CC2)cc1 [Example 1, 9-[4-(4-Acetyl-phenyl)-piperazin-1-yl]-2-amino-4-phenyl-indeno[1,2-d]pyrimidin-5-one]
2.6	1115.38	2900	Nc1nc(-c2ccccc2)c2c(n1)-c1c(cccc1N1CCN(c3ccc(F)cc3F)CC1)C2=O [Example 6, 2-Amino-9-[4-(2,4-difluoro-phenyl)-piperazin-1-yl]-4-phenyl-indeno[1,2-d]pyrimidin-5-one]
2.27	463.233	1050	Nc1nc(-c2ccccc2)c2c(n1)-c1c(cccc1N1CCN(CCc3ccccc3)CC1)C2=O [Example 12, 2-Amino-9-(4-phenethyl-piperazin-1-yl)-4-phenyl-indeno[1,2-d]pyrimidin-5-one]
4.5	133.333	600	COc1ccc(C2CCN(c3cccc4c3-c3nc(N)nc(-c5ccccc5)c3C4=O)CC2)cc1 [Example 18, 2-Amino-9-[4-(4-methoxy-phenyl)-piperidin-1-yl]-4-phenyl-indeno[1,2-d]pyrimidin-5-one]
0.49	1530.61	750	COCCOc1ccc(N2CCN(c3cccc4c3-c3nc(N)nc(-c5ccccc5)c3C4=O)CC2)c(F)c1 [Example 5, 2-Amino-9-{4-[2-fluoro-4-(2-methoxy-ethoxy)-phenyl]-piperazin-1-yl}-4-phenyl-indeno[1,2-d]pyrimidin-5-one]
1.4	142.857	200	Nc1nc(-c2ccccc2)c2c(n1)-c1c(cccc1N1CCN(c3ccccn3)CC1)C2=O [Example 17, 2-Amino-4-phenyl-9-(4-pyridin-2-yl-piperazin-1-yl)-indeno[1,2-d]pyrimidin-5-one]
0.6	5833.33	3500	N#Cc1ccc(N2CCN(c3cccc4c3-c3nc(N)nc(-c5ccccc5)c3C4=O)CC2)cc1 [Example 3, 4-[4-(2-Amino-5-oxo-4-phenyl-5H-indeno[1,2-d]pyrimidin-9-yl)-piperazin-1-yl]-benzonitrile]
1.5	100	150	NC(=O)c1ccc(C2CCN(c3cccc4c3-c3nc(N)nc(-c5ccccc5)c3C4=O)CC2)cc1 [Example 20, 4-[1-(2-Amino-5-oxo-4-phenyl-5H-indeno[1,2-d]pyrimidin-9-yl)-piperidin-4-yl]-benzamide]
0.67	462.687	310	Nc1nc(-c2ccccc2)c2c(n1)-c1c(cccc1N1CCC(O)(c3ccccc3)CC1)C2=O [Example 13, 2-Amino-9-(4-hydroxy-4-phenyl-piperidin-1-yl)-4-phenyl-indeno[1,2-d]pyrimidin-5-one]
